In patent US6376495B1, “Antidiabetic piperazine derivatives, processes for their preparation and compositions containing them” (Merck Patent Gesellschaft, priority 1998, dated 2002):

Columns and labels:
[1] = system: experimental model of non-insulin-dependent diabetes induced in the rat by streptozotocin; test: Study of the hypolipidaemic activity in the rat (total cholesterol, total triglycerides); type: in vivo; conditions: oral route for 7 days, sample 18 h after final administration, diabetic rats 6 months old
Method: The hypolipidaemic activity of the compounds of formula I by the oral route was determined on an experimental model of non-insulin-dependent diabetes induced in the rat by streptozotocin.
The model of non-insulin-dependent diabetes is obtained in the rats by a neonatal injection (5 days after birth) of streptozotocin.
The diabetic rats used are 6 months old. The animals are kept, from the day of their birth to the day of the experiment, in an animal house at a regulated temperature of 21 to 22° C. and are subjected to a fixed cycle of light (from 7 h to 19 h) and of darkness (from 19 h to 7 h).
Their diet consisted of a maintenance diet; water and food were provided “ab [sic] libitum”, with the exception of the 18 hours of fasting preceding the withdrawals of the blood samples on which the lipid balances will be carried out.
The rats are treated by the oral route with the compound of Example 1 for 7 days. A 300-μl sample is withdrawn 18 h after the final administration of this compound.
The total cholesterol was quantitatively determined by the CHOE/CHOD/POD Trinder method as an end point (Instrumentation Laboratory reagent [lacuna] on a Monarch plus analyser (Instrumentation Laboratory).
The total triglycerides were quantitatively determined by the GPO/Trinder method as an end point (Sigma Diagnostic reagent) on a Monarch analyser (Instrumentation Laboratory).

[2] = system: experimental model of non-insulin-dependent diabetes induced in the rat by streptozotocin; test: Study of the antidiabetic activity in the rat (glycaemia, oral route); type: in vivo; conditions: diabetic rats 8 weeks old; for % of glycaemia at D1 (percentage of change in the glycaemia with respect to D0): after treatment for 1 day; for % of glycaemia at D4 (percentage of change in the glycaemia with respect to D0): after treatment for 4 days
Method: The antidiabetic activity of the compounds of formula I by the oral route was determined on an experimental model of non-insulin-dependent diabetes induced in the rat by streptozotocin.
The model of non-insulin-dependent diabetes is obtained in the rat by a neonatal injection (on the day of birth) of streptozotocin.
The diabetic rats used are 8 weeks old. The animals are kept, from the day of their birth to the day of the experiment, in an animal house at a regulated temperature of 21 to 22° C. and are subjected to a fixed cycle of light (from 7 h to 19 h) and of darkness (from 19 h to 7 h). Their diet consisted of a maintenance diet; water and food were provided “ad libitum”, with the exception of the 2 hours of fasting preceding the tests, where food is withdrawn (post-absorptive state).
The rats are treated by the oral route, during the day, with the test product. Two hours after the final administration of the product and 30 minutes after anaesthetizing the animals with sodium pentobarbital (Nembutal®), a 300-μl blood sample is withdrawn at the end of the tail in order to determine the glycaemia.
at D1 (after treatment for 1 day) with respect to D0 (before treatment); and
at D4 (after treatment for 4 days) with respect to D0 (before treatment) for 2 different administration doses (20 mg/kg/day and 200 mg/kg/day) of active principle.

SMILES: COc1cccc(N2CCN(CCOc3ccc(CC(=O)O)cc3)CC2)c1 [Example 1, (4-{2-[4-(3-methoxyphenyl)-piperazin-1-yl]ethoxy}phenyl) acetic acid]
- TOTAL CHOLESTEROL ([1]; in the absence of treatment 90): 79 mg/dL
- TOTAL TRIGLYCERIDES ([1]; in the absence of treatment 167): 102 mg/dL
- % of glycaemia at D1 (percentage of change in the glycaemia with respect to D0) ([2]; 20 mg/kg/day): −8%
- % of glycaemia at D4 (percentage of change in the glycaemia with respect to D0) ([2]; 20 mg/kg/day): −10%
- % of glycaemia at D1 (percentage of change in the glycaemia with respect to D0) ([2]; 200 mg/kg/day): −24%
- % of glycaemia at D4 (percentage of change in the glycaemia with respect to D0) ([2]; 200 mg/kg/day): −34%
- melting point: 158 to 160 °C
